# According to US10703757B2, “Compounds and methods for CDK8 modulation and indications therefor” (Plexxikon Inc., priority 2016, dated 2020):
# Key:
# [1] = test system: CDK8 (phosphorylation of STAT1 at serine 727 in A549 cells); experiment: Cell based Phospho-STAT1 assay (IFNγ-stimulated A549 cells, AlphaLISA); settings: Homo sapiens, A549, A549 cells, phospho-STAT1 after IFNγ stimulation
# Procedure, shortened: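 A549 cells given serial compound dilutions for 1 h at 37 °C, then stimulated with IFNγ at 10 ng/mL final for 30 min. Lysate STAT1 Ser727 phosphorylation measured by AlphaLISA; % inhibition vs stimulated/unstimulated DMSO controls, IC50 by nonlinear regression.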
# [2] = test system: CDK8 (TCF/LEF luciferase reporter in HCT116 cells); experiment: Cell based TCF/LEF reporter assay (HCT116+TCF/LEF luciferase); settings: Homo sapiens, HCT-116, 24 h
# From the text: Determine Inhibitor Activity Against CDK8 in Cell Based TCF/LEF Reporter Assay
# The colorectal carcinoma cell line HCT116 was stably transduced with lentivirus encoding the TCF/LEF promoter upstream of a luciferase reporter gene (Qiagen) and single cell clones expressing this construct (referred to as HCT116+TCF/LEF) were isolated. HCT116 express endogenous mutant β-catenin^3, resulting in up-regulation of transcription through the TCF/LEF promoter. Expression of the TCF/LEF reporter construct in HCT116 results in constitutive expression of luciferase. Treatment of the cells with inhibitors of components of the β-catenin signaling pathway (such as CDK8) results in decreased expression of luciferase. The assay is performed as follows. The HCT116+TCF/LEF cell line is seeded in a 96 well plate in 50 μL of culture media at 1×10^4 cells/well and incubated at 37° C. overnight. Serial dilutions of compounds (in total volume of 50 μL culture media) are added to the cells and incubated at 37° C. for 24 hours. 4 wells of DMSO treated cells serve as high controls and cells treated with 10 uM of the reference compound CCT251545 (a known CDK8 inhibitor)^4 serve as low controls. The viability of the cells is assayed by the addition of […] reagent (Promega) followed by 30 minute incubation at 37° C. and quantification of the fluorescent signal (Ex400/Em505). The luciferase expression is then assayed by the addition of 25 μL ONE-Glo reagent (Promega) followed by 10 minute incubation at room temperature and quantification of the luminescence signal. The luminescence signal is normalized to the fluorescence signal to correct for any loss in cell viability over the 24 hour compound incubation period. The percentage inhibition at individual concentrations relative to high and low controls is calculated. The data are analyzed by using nonlinear regression to generate IC50 values.
smiles,measurement,setting,value
"N#CC1CCN(c2c(-c3ccc(-c4cnn(CC5CC5)c4)cc3)cnc3[nH]ccc23)CC1 [Compound P-0177, 1-(5-(4-(1-(cyclopropylmethyl)-1H-pyrazol-4-yl)phenyl)-1H-pyrrolo[2,3-b]pyridin-4-yl)piperidine-4-carbonitrile]",IC50,[1],0.1 to 100 nM
same,IC50,[2],0.1 to 100 nM
"N#CCCn1cc(-c2ccc(-c3cnn4ccnc(C5CCC(C#N)CC5)c34)cc2F)cn1 (stereo not shown) [Compound P-0019, (1s,4s)-4-(3-(4-(1-(2-cyanoethyl)-1H-pyrazol-4-yl)-3-fluorophenyl)pyrazolo[1,5-a]pyrazin-4-yl)cyclohexane-1-carbonitrile]",IC50,[1],0.1 to 100 nM
same,IC50,[2],0.1 to 100 nM
"N#CC1CCN(c2c(-c3ccc(-n4ccnn4)cc3)cnc3[nH]ccc23)CC1 [Compound P-0220, 1-(5-(4-(1H-1,2,3-triazol-1-yl)phenyl)-1H-pyrrolo[2,3-b]pyridin-4-yl)piperidine-4-carbonitrile]",IC50,[1],0.1 to 100 nM
same,IC50,[2],0.1 to 100 nM
"N#CC1CC=C(c2nccn3ncc(-c4ccc(N5CCOCC5)c(F)c4)c23)CC1 (stereo not shown) [Compound P-0102, 4-(3-(3-fluoro-4-morpholinophenyl)pyrazolo[1,5-a]pyrazin-4-yl)cyclohex-3-ene-1-carbonitrile]",IC50,[1],0.1 to 100 nM
same,IC50,[2],0.1 to 100 nM
"COc1ccc2cc(-c3cnn4ccnc(C5=CCC(C(N)=O)CC5)c34)ccc2n1 (stereo not shown) [Compound P-0154, 4-(3-(2-methoxyquinolin-6-yl)pyrazolo[1,5-a]pyrazin-4-yl)cyclohex-3-ene-1-carboxamide]",IC50,[1],0.1 to 100 nM
same,IC50,[2],0.1 to 100 nM
"N#CC1CCN(c2c(-c3ccc4c(c3)NC(=O)C4)cnc3[nH]ccc23)CC1 [Compound P-0189, 1-(5-(2-oxoindolin-6-yl)-1H-pyrrolo[2,3-b]pyridin-4-yl)piperidine-4-carbonitrile]",IC50,[1],0.1 to 100 nM
same,IC50,[2],0.1 to 100 nM
"N#CC1CC=C(c2c(-c3ccc(OCCOC4CCOCC4)cc3)cnc3[nH]ccc23)CC1 (stereo not shown) [Compound P-0172, 4-(5-(4-(2-((tetrahydro-2H-pyran-4-yl)oxy)ethoxy)phenyl)-1H-pyrrolo[2,3-b]pyridin-4-yl)cyclohex-3-ene-1-carbonitrile]",IC50,[1],0.1 to 100 nM
same,IC50,[2],0.1 to 100 nM
"CC(C)(O)C#Cc1cccn2ncc(-c3ccc(-c4cccnc4)cc3)c12 [Compound P-0237, 2-methyl-4-(3-(4-(pyridin-3-yl)phenyl)pyrazolo[1,5-a]pyridin-4-yl)but-3-yn-2-ol]",IC50,[1],0.1 to 100 nM
same,IC50,[2],0.1 to 100 nM
"N#CC1CC=C(c2nccn3ncc(-c4ccc(OCC5CC5)c(Cl)c4)c23)CC1 (stereo not shown) [Compound P-0038, 4-(3-(3-chloro-4-(cyclopropyl-methoxy)phenyl)pyrazolo[1,5-a]pyrazin-4-yl)cyclohex-3-ene-1-carbonitrile]",IC50,[1],0.1 to 100 nM
same,IC50,[2],0.1 to 100 nM
"COc1ccc(-c2cnn3ccnc(C4=CCC(C#N)CC4)c23)cc1 (stereo not shown) [Compound P-0088, 4-(3-(4-methoxyphenyl)pyrazolo[1,5-a]pyrazin-4-yl)cyclohex-3-ene-1-carbonitrile]",IC50,[1],0.1 to 100 nM
same,IC50,[2],0.1 to 100 nM
"Cn1cc(-c2ccc(-c3cnn4cccc(C#CC(C)(C)O)c34)cc2)cn1 [Compound P-0429, 2-methyl-4-[3-[4-(1-methylpyrazol-4-yl)phenyl]pyrazolo[1,5-a]pyridin-4-yl]but-3-yn-2-ol]",IC50,[1],0.1 to 100 nM
same,IC50,[2],0.1 to 100 nM
"CC(C)(O)C#Cc1cccn2ncc(-c3ccc4nccn4c3)c12 [Compound P-0286, 4-(3-(imidazo[1,2-a]pyridin-6-yl)pyrazolo[1,5-a]pyridin-4-yl)-2-methylbut-3-yn-2-ol]",IC50,[1],0.1 to 100 nM
same,IC50,[2],100 to 1000 nM
"Cc1noc(-c2ccc(-c3cnn4cccc(N5CCC(C#N)CC5)c34)cc2)n1 [Compound P-0366, 1-(3-(4-(3-methyl-1,2,4-oxadiazol-5-yl)phenyl)pyrazolo[1,5-a]pyridin-4-yl)piperidine-4-carbonitrile]",IC50,[1],0.1 to 100 nM
same,IC50,[2],0.1 to 100 nM
"CS(=O)(=O)Nc1ccc2cc(-c3cnn4cccc(C5=CCC(C#N)CC5)c34)ccc2c1 (stereo not shown) [Compound P-0199, N-(6-(4-(4-cyanocyclohex-1-en-1-yl)pyrazolo[1,5-a]pyridin-3-yl)naphthalen-2-yl)methanesulfonamide]",IC50,[1],0.1 to 100 nM
same,IC50,[2],0.1 to 100 nM
"CCn1cc(-c2ccc(-c3cnn4cccc(C#CC(C)(C)O)c34)cc2)cn1 [Compound P-0232, 4-(3-(4-(1-ethyl-1H-pyrazol-4-yl)phenyl)pyrazolo[1,5-a]pyridin-4-yl)-2-methylbut-3-yn-2-ol]",IC50,[1],0.1 to 100 nM
same,IC50,[2],0.1 to 100 nM
"Cc1nc2ccc(-c3cnn4ccnc(C5=CCC(C#N)CC5)c34)cc2s1 (stereo not shown) [Compound P-0149, 4-(3-(2-methylbenzo[d]thiazol-6-yl)pyrazolo[1,5-a]pyrazin-4-yl)cyclohex-3-ene-1-carbonitrile]",IC50,[1],0.1 to 100 nM
same,IC50,[2],0.1 to 100 nM
"N#CC1CC=C(c2cccn3ncc(-c4ccc(OCCCN5CCCCC5)cc4)c23)CC1 (stereo not shown) [Compound P-0180, 4-(3-(4-(3-(piperidin-1-yl)propoxy)phenyl)pyrazolo[1,5-a]pyridin-4-yl)cyclohex-3-ene-1-carbonitrile]",IC50,[1],0.1 to 100 nM
same,IC50,[2],0.1 to 100 nM
"Cc1nc2cc(-c3cnn4ccnc(C5=CCC(C#N)CC5)c34)ccc2s1 (stereo not shown) [Compound P-0148, 4-(3-(2-methylbenzo[d]thiazol-5-yl)pyrazolo[1,5-a]pyrazin-4-yl)cyclohex-3-ene-1-carbonitrile]",IC50,[1],100 to 1000 nM
same,IC50,[2],0.1 to 100 nM
"Cn1ccc(-c2ccc(-c3cnn4cccc(C#CC(C)(C)O)c34)cc2)n1 [Compound P-0226, 2-methyl-4-(3-(4-(1-methyl-1H-pyrazol-3-yl)phenyl)pyrazolo[1,5-a]pyridin-4-yl)but-3-yn-2-ol]",IC50,[1],0.1 to 100 nM
same,IC50,[2],0.1 to 100 nM
"Cn1cc(-c2ccc(-c3cnc4[nH]ccc4c3N3CCC4(CC3)C(=O)Nc3ccccc34)cc2)cn1 [Compound P-0272, 1′-(5-(4-(1-methyl-1H-pyrazol-4-yl)phenyl)-1H-pyrrolo[2,3-b]pyridin-4-yl)spiro[indoline-3,4′-piperidin]-2-one]",IC50,[1],100 to 1000 nM
same,IC50,[2],0.1 to 100 nM
"COc1ccc2cc(-c3cnn4cccc(N5CCC6(CCNC6=O)CC5)c34)ccc2n1 [Compound P-0167, 8-(3-(2-methoxyquinolin-6-yl)pyrazolo[1,5-a]pyridin-4-yl)-2,8-diazaspiro[4.5]decan-1-one]",IC50,[1],0.1 to 100 nM
same,IC50,[2],0.1 to 100 nM
"Cn1cc(-c2ccc(-c3cnn4ccnc(C5=CCC(C(N)=O)CC5)c34)cc2)cn1 (stereo not shown) [Compound P-0280, 4-(3-(4-(1-methyl-1H-pyrazol-4-yl)phenyl)pyrazolo[1,5-a]pyrazin-4-yl)cyclohex-3-ene-1-carboxamide]",IC50,[1],0.1 to 100 nM
same,IC50,[2],0.1 to 100 nM
"CC(C)(O)Cn1cc(-c2ccc(-c3cnc4[nH]ccc4c3C3=CCC(C#N)CC3)cc2)cn1 (stereo not shown) [Compound P-0332, 4-(5-(4-(1-(2-hydroxy-2-methylpropyl)-1H-pyrazol-4-yl)phenyl)-1H-pyrrolo[2,3-b]pyridin-4-yl)cyclohex-3-ene-1-carbonitrile]",IC50,[1],0.1 to 100 nM
same,IC50,[2],0.1 to 100 nM
"CC(C)(O)Cn1cc(-c2ccc(-c3cnn4cccc(C#CC(C)(C)C(=O)O)c34)cc2)cn1 [Compound P-0093, 4-(3-(4-(1-(2-hydroxy-2-methylpropyl)-1H-pyrazol-4-yl)phenyl)pyrazolo[1,5-a]pyridin-4-yl)-2,2-dimethylbut-3-ynoic acid]",IC50,[2],100 to 1000 nM
"N#CC1CC=C(c2nccn3ncc(-c4ccc(OCC(F)(F)F)c(F)c4)c23)CC1 (stereo not shown) [Compound P-0037, 4-(3-(3-fluoro-4-(2,2,2-trifluoro-ethoxy)phenyl)pyrazolo[1,5-a]pyrazin-4-yl)cyclohex-3-ene-1-carbonitrile]",IC50,[2],100 to 1000 nM
"N#CC1CC=C(c2c(-c3ccc4c(cnn4CC4(C(=O)O)CC4)c3)cnc3[nH]ccc23)CC1 (stereo not shown) [Compound P-0108, 1-((5-(4-(4-cyanocyclohex-1-en-1-yl)-1H-pyrrolo[2,3-b]pyridin-5-yl)-1H-indazol-1-yl)methyl)cyclopropane-1-carboxylic acid]",IC50,[2],100 to 1000 nM
"O=C(O)C1CC=C(c2cccn3ncc(-c4ccc(-n5ccnn5)cc4)c23)CC1 (stereo not shown) [Compound P-0212, 4-(3-(4-(1H-1,2,3-triazol-1-yl)phenyl)pyrazolo[1,5-a]pyridin-4-yl)cyclohex-3-ene-1-carboxylic acid]",IC50,[2],100 to 1000 nM
"N#CC1CCN(c2cccn3ncc(-c4ccc(S(=O)(=O)N5CCCCC5)cc4)c23)CC1 [Compound P-0256, 1-(3-(4-(piperidin-1-ylsulfonyl)phenyl)pyrazolo[1,5-a]pyridin-4-yl)piperidine-4-carbonitrile]",IC50,[2],1000 to 10000 nM
"CC(C)(C#Cc1cccn2ncc(-c3ccc(N4CCOCC4)c(F)c3)c12)C(=O)O [Compound P-0092, 4-(3-(3-fluoro-4-morpholinophenyl)pyrazolo[1,5-a]pyridin-4-yl)-2,2-dimethylbut-3-ynoic acid]",IC50,[2],100 to 1000 nM
